Tests used:
[1] = test system: CCRF-CEM cells; test: Cell Culture Study I (MTX cytotoxicity, alamarBlue); type: cell-based, human; conditions: 72 hours
Method: In this study, CCRF-CEM cells purchased from ATCC were cultured and then 12 tubes containing approximately 10^6 cells each treated for 72 hours with media (Group1), MTX 0.03 μM (Group2), MTX+Leucovorin 1 μM (Group3), MTX+Leucovorin 10 μM (Group4), MTX+Leucovorin 100 μM (GroupS), MTX+TK-112690 1 μM (Group6), MTX+TK-112690 10 μM (Group7) and MTX+TK-112690 100 μM (Group8). […] Viability was measured as percent reduction of alamarBlue absorbance.
The tumor cell line CCR-CEM (human T-cell acute lymphoblastic leukemia) is obtained from American Type Culture Collection (CRL-1593.2) and cultured in accordance with the product information sheet with the following exceptions: 55.3 cm^2 Petri dishes are used instead of 75 cm^2 culture flasks, and 1% penicillin-streptomycin solution (HyClone SV30010) and 1% GlutaMAX™ (Gibco 35050) are added to the culture medium.
TK-112690, the representative 2,2′-anhydropyrimidine test article, is dissolved in 40% DMSO, sterile filtered then diluted with sterile distilled water to obtain initial working solutions of 10, 100 and 1000 μM. In testing, a 100 fold dilution is made in culture media to give final assay concentrations of 0.1, 1.0 and 10.0 μM. MTX (SAFC Biosciences M8407) is dissolved in sterile distilled water and 5 N NaOH then sterile filtered. The final pH of the stock solution is 7.8 and working solutions are made with sterile distilled water for final assay concentrations of 30, 3.0, 0.3, 0.03 and 0.003 μM. Leucovorin (Sigma F-7878) is dissolved in sterile distilled water, sterile filtered and diluted with sterile distilled water for final assay concentrations of 0.1, 1.0 and 10.0 μM.
Aliquots of 100 μL of cell suspension are plated in 96 well microtiter plates (Corning costar 3595) and placed in an atmosphere of 5% CO2 at 37° C. (Fisher Scientific Isotemp 3500 CO2 Incubator). After 24 hours, 100 μL of growth medium [RPMI-1640 w/L-glutamine (Cambrex 12-702Q) fortified with sodium pyruvate (HyClone SH30239.01), fetal bovine serum (SAFC Biosciences 12107C) and HEPES buffer (Gibco 15630)] and 2 μL of test solution or vehicle are added respectively per well and the plates incubated for an additional 72 hour incubation. MTX is evaluated at concentrations of 0.003, 0.03, 0.30 and 3.0 μM alone or in combination with either a 2,2′-anhydropyrimidine test article or Leucovorin at concentrations of 0.1, 1.0, 10.0 μM. At the end of incubation, the efficacy of anti-cell proliferation is determined by optical absorbance at A=570 and 600 nm [Spectramax 250 (Molecular Devices)] in accordance with the standard alamarBlue™ (Biosource) protocol.
Group 1 is the cell control (media treated). Group 2 corresponds to cells treated with 0.03 μM MTX. Group 3 are cells treated with 1.0 μM Leucovorin. Group 4 are cells treated with 0.1 μM Leucovorin. […]

[2] = test system: Drosophila melanogaster; test: Fly Study I (protection from MTX-induced lethality); type: in vivo; conditions: for Flies Alive (Number): Fly Study I method, test compound + MTX (MTX Alone: no adjuvant), Table 3
Method: In this study, Drosophila melanogaster eggs (50 eggs per vial) were treated with either 0.005 mg TK-112690+0.4 mg MTX (Group 1), 0.01 mg TK-112690+0.4 mg MTX (Group 2), 0.04 mg TK-112690+0.4 mg MTX (Group 3), 0.1 mg TK-112690+0.4 mg MTX (Group 4), 0.4 mg MTX alone (Group 5) or saline blank (Group 6). Two vials of eggs for each dose group were evaluated for viability (viable flies plus pupae).
The efficacy of cancer chemotherapy can be improved if agents are available to reduce the adverse events associated with treatment with cytotoxic agents. To this end, Drosophila melanogaster (commonly know as the fruit fly) is an ideal organism to screen chemical compounds for such side-effect-reducing agents. This study is aimed at finding a dose of a 2,2′-anhydropyrimidine test article that protects against MTX-induced lethality in insects.
Increasing amounts of a 2,2′-anhydropyrimidine test article (typically 0.03 to 0.1 mg) are mixed in an aqueous solution with 0.3 (or 0.4) mg MTX. Four milliliters (mL) of a 2,2′-anhydropyrimidine test article+MTX solutions are added to an appropriate amount of instant fly medium. Fruit fly eggs are added to a 2,2′-anhydropyrimidine test article+MTX treated medium and incubated for up to 31 days. After the 31 day incubation, each assay is scored by the number of mature fly and pupae per vial.
The assays are set up in clear sterile polystyrene narrow diameter vials from Applied Scientific (Hampton, N.H.). Vials are stored in trays and incubated in a darkened 25° C. incubator.
Reagents and materials used are: 50 mg/mL MTX in H2O (pH 8), 20 mg/mL of the 2,2′-anhydropyrimidine test article in H2O, water, sterile polystyrene narrow diameter vials from Applied Scientific, Instant Drosophila Food Medium, Oregon-R Drosophila melanogaster, 25° C. incubator, and 15 mL polystyrene conical tubes
Each assay is performed in a separate fly vial. Increasing amounts of a 2,2′-anhydropyrimidine (0.005 to 1.0 mg) are tested for MTX side-effect-reduction on fly eggs. Amounts of the 2,2′-anhydropyrimidine test article are drawn from a 20 mg/mL stock solution dissolved in water. Nine mL of the 2,2′-anhydropyrimidine+0.3 (or 0.4) mg MTX solutions are pre-mixed with water in a 15 mL conical tube. Duplicate assays receive 4 mL of the 2,2′-anhydropyrimidine test article+0.3 (or 0.4) mg MTX solutions. Pre-measured amounts of instant drosophila medium are added to each assay to achieve optimal hydration level. Controls are (1) 4 mL water alone and (2) 0.3 (or 0.4) mg MTX alone. Precisely 50 fly eggs aged for ˜18 hours are added to each assay. Assays are capped with a fitted plug and incubated for 30 days in a darkened 25° C. incubator. Assays are scored by the number of dead pupae or adult flies per vial.

Nc1nc2c(c(=O)[nH]1)N(C=O)C(CNc1ccc(C(=O)N[C@@H](CCC(=O)O)C(=O)O)cc1)CN2 (some centres unmarked) [Leucovorin, reference compound]
cell viability, Leucovorin+MTX versus MTX alone (protection by positive control) ([1]; 0.03 μM MTX + Leucovorin, p<0.000 and 0.002): statistically different | cell viability, test article alone versus control ([1]; without MTX): not statistically different than control

O=c1nc2n(cc1NCc1ccccc1)[C@@H]1O[C@H](CO)[C@@H](O)[C@@H]1O2 [TK-000006]
Flies Alive (Number) [2]: 0

CCOCc1cn2c(nc1=O)O[C@H]1[C@H](O)[C@@H](CO)O[C@H]12 [TK-000007]
Flies Alive (Number) [2]: 3

O=c1nc2n(cc1COCc1ccccc1)[C@@H]1O[C@H](CO)[C@@H](O)[C@@H]1O2 [TK-000008]
Flies Alive (Number) [2]: 0

COCc1cn2c(nc1=O)O[C@H]1[C@H](O)[C@@H](CO)O[C@H]12 [TK-000009]
activity in the Fly model for protection against MTX-induced lethality [2]: active | Flies Alive (Number) [2]: 5

CC(=N)OCc1cn2c(nc1=O)O[C@H]1[C@H](O)[C@@H](CO)O[C@H]12 [TK-000010]
Flies Alive (Number) [2]: 0

Cc1cn2c(nc1=O)O[C@H]1[C@H](O)[C@@H](CN=[N+]=[N-])O[C@H]12 [TK-000011]
Flies Alive (Number) [2]: 0

Cc1cn2c(nc1=O)O[C@H]1C(O)[C@@H](CF)O[C@H]12 (some centres unmarked) [TK-000015]
Flies Alive (Number) [2]: 0

Cc1ccc(SCc2cn3c(nc2=O)O[C@H]2C(O)[C@@H](CO)O[C@H]23)cc1 (some centres unmarked) [TK-000016]
Flies Alive (Number) [2]: 0

Reference: patent US8853227B2, “Methotrexate adjuvants to reduce toxicity and methods for using the same” (Tosk, Incorporated, priority 2008, dated 2014)
